According to patent US6716883B1, “Composition useful to treat periodontal disease” (priority 1998, dated 2004):

Experiments:
Assay type in all cases: cell-based
[1] = tested on: rat SBMC (stromal bone marrow cell) line; assay: AP activity in rat stromal bone marrow cell (SBMC) line
Protocol: Cells for the rat SBMC model were obtained from Dr. Sandu Pitaru (Tel Aviv University, Israel) and maintained in T25 tissue culture flasks (Sarstedt, Newton, N.C., USA) in a medium composed of αMEM+RNA+DNA+antibiotic supplemented with 10% fetal calf serum, 10 mM β-glycerophosphate, 10^−8M dexamethasone, 50 μg/ml vitamin C and 3 ng/ml fibroblast growth factor. The media were changed every 48 hours and the cells subcultured when almost confluent (approximately every 72 hrs). Cells were grown for a period of 1-2 weeks to allow for formation of mineralized bone nodules.
SBMC cultures were assayed for AP activity using paranitrophenol-phosphate (pN-p) as the substrate as described above for CPO cultures. In some cases, AP activity was also measured using direct staining of SBMC cultures in 96 well plates as described previously (Tenenbaum et al., Anat Rec. 1995. 242(2):200-10). Mineralization in the SBMC cultures was determined using Alizarin Red staining in situ that was assessed with the Titertek spectrophotometer set at 525 nm.

[2] = tested on: rat bone marrow cells (RBMC); assay: APA in primary rat bone marrow cell (RBMC) bone formation system
From the text: Rat bone marrow cells were derived from femoral bones removed from adult male Wistar rats as described previously (Maniatopoulos et al., Cell Tissue Res, 1988, 254(2):317-330). These cells, grown in the presence of dexamethasone, vitamin C and b-glycerophosphate, differentiated into osteoblasts as shown by increases in APA and the production of mineralized bone nodules within 12-14 days. For the purposes of this investigation, we analyzed 10-16 day cultures for APA, as this was a reliable marker for osteoblastic differentiation in this system.

[3] = tested on: chick periosteal osteogenesis (CPO) cultures; assay: Alkaline phosphatase activity (APA) in CPO cultures
Protocol: In this experiment, the chick periosteal osteogenesis (CPO) model was used to determine if bone loss is induced by dioxin. The CPO model has been described in detail previously (Nijweide, Proc. Kon. Ned. Akad. Wet. 1975. C78:410-417) and was prepared for the purposes of this experiment as set out below.
Following sacrifice, two triangular calvarial explants were removed by cutting along the central suture, transversely along the posterior suture and laterally above the eye in 17-day-old embryonic chicks. The ectocranial periosteum (outer curved surface) was peeled off using forceps under microscopic magnification and folded so that the surface originally facing bone was in apposition to itself as described previously (Tenenbaum et al., Calcif Tissue Int. 34:76-79). The folded explant was then placed on a Millipore filter (HA 0.45 μm), which was transferred onto a stainless steel grid resting in the center well of an organ culture dish (Falcon Plastics, Lincoln Park, N.J., USA) that was filled with culture media to a level such that the culture was supported at the gas-liquid interface (˜1.5 ml of media). Three cultures were placed in each dish which was then covered and incubated at 37° C. in a humidified atmosphere containing 5% CO2 in air. Media changes occurred on days 2 and 4, and the medium was comprised of BGJb medium (Fitton-Jackson Modification) with L-glutamine (Gibco, Grand Island, N.Y., USA) and supplemented with 2% antibiotic (10,000 units/ml Penicillin G sodium, 10,000 μg/ml Streptomycin sulfate in 0.85% saline) (Gibco), 10% fetal calf serum (Gibco), 10^−7M dexamethasone (Sigma, St. Louis, Mo., USA), 10 mM β-glycerophosphate, and 300 μg/ml L-ascorbate (Gibco).
For the purposes of this investigation, the effects of a potent aryl hydrocarbon, TCDD (2,3,7,8-tetrachlorodibenzo-p-dioxin or dioxin) on the early events occurring during osteogenesis were determined. The CPO model traverses a number of phases of osteogenesis. Therefore, it was possible to design temporal or “window” experiments in order to determine the phases of osteogenesis that were sensitive to TCDD and/or resveratrol. […] All cultures were maintained for the entire 6-day period. The compounds were administered over four different temporal phases, as outlined below in the time-line diagram: a) days 0-6; b) days 0-2; c) days 2-4 or d) days 4-6 (Note: all cultures were stopped at 6 days). Results were compared to e) vehicle alone over days 0-6. [drawing 1]
On day 6, the culture dishes were placed on ice and individual cultures were transferred to separate test tubes and stored at −20° C. for further analysis.
CPO cultures were assayed for AP activity using paranitrophenol-phosphate (pN-p) as the substrate (Demetriou et al. J Biol Chem. 1996. 271(22)12755-61). The intensity of the colour change was evaluated using a Titertek® Multiskan® MCC/340 Spectrophotometer (Flow Laboratories, Mississauga, ON, Canada) and compared to a standard curve obtained from a serial dilution of 10 mM pN with bicarbonate buffer (pH 7.4) in flat bottomed Titertek 96-well plates as described previously (Demetriou et al., 1996, supra). The reaction was stopped with 100 μl of 0.2N NaOH and pN-p levels read at 405 nm on the Titertek. Calcium incorporation was assayed in the pellets produced from centrifugation of the homogenized CPO cultures following hydrolysis in 500 μl of 0.5N HCl and then measured using atomic absorption spectrophotometry (Sukhu et al. Endocrinology. 1997. 138 (8):3269-75).

[4] = tested on: rat bone marrow cell line (RBMCL); assay: APA in rat bone marrow cell line (RBMCL)
[5] = resveratrol 4×10^−8M to 3×10^−5M with TCDD

SMILES	reduction in AP activity ([1]; TCDD 1.1×10^−9M) [%]	reduction in AP activity versus control ([1]; TCDD 3.3×10^−9M and higher) [%]	dose dependence of reduction in AP activity ([1]; TCDD 3.3×10^−9M to 4.12×10^−11M)	AP activity ([1]; TCDD 4.12×10^−11M)	inhibition at 0.001 µM ([2]; Rattus norvegicus, Bone marrow cell, read-out: inhibition of osteodifferentiation as measured by APA, compared to alcohol-treated control) [%]	reduction in AP activity ([3]; 10^−9M TCDD alone during days 0-2, p<0.05 vs. vehicle) [%]	change in AP activity ([3]; 10^−9M TCDD alone during days 2-4 or 4-6)	reduction in AP activity versus vehicle alone ([3]; 10^−9M TCDD over a 6-day period) [%]	inhibition of osteogenic differentiation (APA) ([4]; TCDD, 6 day cultures, in comparison to CPO and RBMC)	effect on AP activity ([1]; increasing concentration of resveratrol, TCDD 4.12×10^−11M)	abrogation of TCDD effect on AP activity ([1]; resveratrol 4×10^−8M to 1×10^−5M, TCDD 1.1×10^−9M)	reversal of TCDD reduction in AP activity ([1]; resveratrol at various concentrations, TCDD 3.3×10^−9M and higher)	abrogation of TCDD effects on APA ([2]; resveratrol 10^−6 molar in alcohol, added together or singly between days 4-10, FIG. 9)	effect on APA ([2]; resveratrol alone)	change in AP activity ([3]; 10^−6M resveratrol alone over days 0-6, 0-2, 2-4 or 4-6)	increase in AP activity in comparison to TCDD alone ([3]; resveratrol 10^−5M, 10^−6M and 10^−7M with TCDD, FIG. 2a)	APA in comparison to control [4, 5]	inhibition of TCDD-mediated inhibition of osteoblastic differentiation (APA) [4, 5]
Clc1cc2c(cc1Cl)Oc1cc(Cl)c(Cl)cc1O2 [TCDD, 2,3,7,8-tetrachlorodibenzo-p-dioxin]	33	33	dose dependant	not affected	~50	53	did not significantly alter AP activity	80	lower dose of TCDD was able to inhibit osteogenic differentiation	–	–	–	–	–	–	–	–	–
Oc1ccc(C=Cc2cc(O)cc(O)c2)cc1 [resveratrol, 3,5,4′-trihydroxystilbene]	–	–	–	–	–	–	–	–	–	had no effect	abrogated the effects of TCDD	not reversed	completely abrogated the effects of TCDD	no significant effects	No significant change in AP activity	2-4 fold	appeared to stimulate APA	able to inhibit TCDD-mediated inhibition of osteoblastic differentiation
